From patent publication US4496591A, “Insecticidal bis-carbamate sulfides” (priority 1981, dated 1985)

What was measured:
[1] = tested on: Mexican bean beetle (Epilachna varivestis, Muls.) larvae; assay: Mexican bean beetle leaf spray test; format: in vivo; parameters: key: A: excellent control; B: partial control; C: no control at 500 ppm; conditions: 500 parts per million, fourth instar larvae, three days
Method: Suspensions of the test compounds were prepared by dissolving one gram of compound in 50 milliliters of acetone in which had been dissolved 0.1 gram (10 percent of the weight of compound) of an alkylphenoxy polyethoxyethanol surfactant, as an emulsifying or dispersing agent. The resulting solution was mixed into 150 milliliters of water to give roughly 200 milliliters of a suspension containing the compound in finely divided form. The thus-prepared stock suspension contained 0.5 percent by weight of compound. The concentrations in parts per million by weight employed in the tests described hereinbelow were obtained by appropriate dilutions of the stock suspension with water. The test procedures were as follows:
Fourth instar larvae of the Mexican bean beetle (Epilachna varivestis, Muls.), reared on Tendergreen bean plants at a temperature of 80±5° F. and 50±5° F. percent relative humdity, were the test insects.
The test compounds were formulated by diluting the stock suspension with water to give a suspension containing 500 parts of test compound per million parts of final formulation. Tendergreen bean plants of standard height and age were placed on a revolving turntable and sprayed with 100-110 milliliters of test compound formulation by use of a DeVilbiss spray gun set at 40 psig air pressure. This application, which lasted 25 seconds, was sufficient to wet the plants to run-off. As a control, 100-110 milliliters of a water-acetone-emulsifier solution containing no test compound was also sprayed on infested plants. When dry, the paired leaves were separated and each was placed in a 9 centimeter Petri dish lined with moistened filter paper. Five randomly selected larvae were introduced into each dish, and the dishes were closed. The closed dishes were labeled and held at a temperature of 80±5° F., for three days. Although the larvae could easily consume the leaf within 24 to 48 hours, no more food was added. Larvae which were unable to move the length of the body, even upon stimulation, were considered dead.
In these tests the pesticidal activity of the compounds at the indicated dosage rate against aphid, Southern Armyworm, Bean Beetle and housefly was rated as follows: […]

[2] = tested on: root-knot nematode, Meloidogyne incognita var. acrita; assay: Nematocide test; format: in vivo; parameters: key: 1: severe galling, equal to untreated plants; 2: moderate galling; 3: light galling; 4: very light galling; 5: no galling, perfect control; conditions: 3.33 m.g. per jar, cucumber, approximately 3 weeks
Method: The test organism used was the infective migratory larvae of the root-knot nematode, Meloidogyne incognita var. acrita, reared in the greenhouse on roots of cucumber plants. Infected plants were removed from the culture, and the roots were chopped very finely. A small amount of this inoculum was added to a pint jar containing approximately 180 cc. of soil. The jars were capped and incubated for one week at room temperature. During this period eggs of the nematode were hatched, and the larval forms migrated into the soil.
Ten ml. of the test formulation were added to each of the two jars for each dosage tested. Following the addition of chemical, the jars were capped, and the contents thoroughly mixed on a ball mill for […].
The test compounds were formulated by a standard procedure of solution in acetone addition of an emulsifier, and dilution with water. Primary screening tests were conducted at 3.33 m.g. of the test compound per jar.
The jars were left capped at room temperature for a period of 48 hours, and the contents then transferred to 3 inch pots. Subsequently, the pots were seeded to cucumber as an indicator crop and placed in the greenhouse where they were cared for in the normal fashion for approximately 3 weeks.
The cucumber plants were then taken from the pots, the soil removed from the roots, and the amount of galling visually rated.
In the test for activity against nematodes activity was rated as follows: […]

SMILES: CSC(C)=NOC(=O)N(C)SN(C)C(=O)Oc1cccc(C=O)c1 [Compound 3]
- Mexican Bean Beetle, pesticidal activity rating [1]: A
- Root-Knot Nematode, galling rating [2]: 1
